Measurements as given in US9527851B2, “Pyrrole six-membered heteroaryl ring derivative, preparation method thereof, and medicinal uses thereof” (Jiangsu Hengrui Medicine Co., Ltd., priority 2011, dated 2016).

Tests used:
[1] = Pharmacokinetics assay in rats, intragastric administration, plasma by LC/MS/MS; assay type: in vivo, Sprague-Dawley (SD) rats; conditions: both sexes, Sprague-Dawley, rat, plasma, po, SD rats, 10 mg/kg; for Vd/F: read-out: Apparent Distribution Volume Vz/F; for AUC: read-out: Area Under Curve AUC; for CL/F: read-out: Clearance CL/F; for half-life: read-out: Half-Life t½ (converted); for MRT: read-out: Mean Residence Time MRT; for Cmax: read-out: Plasma Conc. Cmax
Description: Rats were used as test animals. […] The pharmacokinetic behavior of the compounds of the present invention was studied and evaluated in rats.
56 Healthy adult Sprague-Dawley (SD) rats, half male and half female, purchased from SINO-BRITSH SIPPR/BK LAB.
The appropriate amount of test compounds were weighed and mixed with 1.0 mL of dimethyl sulfoxide to prepare a 1.0 mg/mL suspension.
After an overnight fast, SD rats were administered intragastrically at a dose of 10.0 mg/kg and an administration volume of 10 mL/kg.
The plasma samples were stored at −20° C. The rats were fed 2 hours after administration.
Content determination of the test compounds in rat plasma after intragastrically administering at different concentrations: 50 μL of rat plasmas taken at various time points after administration were mixed with 50 μL of internal standard solution and 100 μL of methanol and mixed for 3 minutes by a vortexer. The mixture was centrifuged for 10 minutes at 13,500 rpm. 10 μL of the supernatant was taken from the plasma sample and analyzed by LC-MS/MS.
Pharmacokinetic Parameters of the compounds of the present invention were shown as follows: […]

[2] = target: JAK2 kinase (Homo sapiens (Human), UniProt O60674); test: Assay for inhibiting JAK2 kinase (in vitro kinase assay, HRP anti-phosphotyrosine antibody/TMB absorbance); assay type: biochemical; conditions: 20 μM ATP, 50 minutes at room temperature; read-out: IC50 (JAK2/Bio)
Description: In vitro activity of compounds of the present invention for inhibiting JAK2 kinase was determined by the following method.

[3] = target: JAK1 kinase (Homo sapiens (Human), UniProt P23458); test: Assay for inhibiting JAK1 kinase (in vitro kinase assay, HRP anti-phosphotyrosine antibody/TMB absorbance); assay type: biochemical; conditions: 20 μM ATP, 50 minutes at room temperature; read-out: IC50 (JAK1/Bio)
Description: In vitro activity of compounds of the present invention for inhibiting JAK1 kinase was determined by the following method.
IC50 values of test compounds was calculated from the data of the test compounds in inhibiting the activity of JAK1 kinase at different concentrations.

[4] = target: JAK3 kinase (Homo sapiens (Human), UniProt P52333); test: Assay for inhibiting JAK3 kinase (in vitro kinase assay, HRP anti-phosphotyrosine antibody/TMB absorbance); assay type: biochemical; conditions: 50 minutes at room temperature; read-out: IC50 (JAK3/Bio)
Description: In vitro activity of compounds of the present invention for inhibiting JAK3 kinase was determined by the following method.

JAK2 kinase, sequence (O60674 whole entry): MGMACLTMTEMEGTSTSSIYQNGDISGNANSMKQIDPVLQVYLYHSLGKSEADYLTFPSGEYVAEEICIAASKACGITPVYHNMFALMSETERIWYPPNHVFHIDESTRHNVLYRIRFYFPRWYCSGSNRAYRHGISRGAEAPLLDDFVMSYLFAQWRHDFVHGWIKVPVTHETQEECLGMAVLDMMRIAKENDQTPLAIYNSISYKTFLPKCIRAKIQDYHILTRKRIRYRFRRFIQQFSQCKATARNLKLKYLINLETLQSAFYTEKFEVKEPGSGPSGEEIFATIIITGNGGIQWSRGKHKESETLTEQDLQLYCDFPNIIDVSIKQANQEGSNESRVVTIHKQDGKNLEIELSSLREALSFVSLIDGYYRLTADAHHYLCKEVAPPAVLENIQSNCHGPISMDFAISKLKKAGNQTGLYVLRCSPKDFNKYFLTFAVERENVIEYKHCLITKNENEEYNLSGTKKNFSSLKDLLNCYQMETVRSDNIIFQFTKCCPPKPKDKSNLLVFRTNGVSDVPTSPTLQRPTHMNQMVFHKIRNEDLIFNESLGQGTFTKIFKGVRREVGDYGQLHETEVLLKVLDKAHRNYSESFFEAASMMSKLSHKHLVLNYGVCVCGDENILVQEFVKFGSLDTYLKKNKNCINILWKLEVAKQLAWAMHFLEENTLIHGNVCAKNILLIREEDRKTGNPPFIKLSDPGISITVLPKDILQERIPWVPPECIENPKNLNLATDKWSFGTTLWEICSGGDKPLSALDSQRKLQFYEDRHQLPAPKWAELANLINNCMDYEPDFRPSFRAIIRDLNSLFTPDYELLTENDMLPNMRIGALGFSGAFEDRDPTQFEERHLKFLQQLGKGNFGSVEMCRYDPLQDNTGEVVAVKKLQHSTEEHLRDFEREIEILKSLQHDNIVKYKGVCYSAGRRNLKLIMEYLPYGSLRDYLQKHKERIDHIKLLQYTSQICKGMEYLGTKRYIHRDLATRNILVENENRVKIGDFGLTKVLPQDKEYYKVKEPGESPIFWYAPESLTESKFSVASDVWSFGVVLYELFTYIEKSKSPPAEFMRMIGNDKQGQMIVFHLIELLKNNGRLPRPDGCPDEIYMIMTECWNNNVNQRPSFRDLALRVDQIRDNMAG
JAK1 kinase, sequence (P23458 whole entry): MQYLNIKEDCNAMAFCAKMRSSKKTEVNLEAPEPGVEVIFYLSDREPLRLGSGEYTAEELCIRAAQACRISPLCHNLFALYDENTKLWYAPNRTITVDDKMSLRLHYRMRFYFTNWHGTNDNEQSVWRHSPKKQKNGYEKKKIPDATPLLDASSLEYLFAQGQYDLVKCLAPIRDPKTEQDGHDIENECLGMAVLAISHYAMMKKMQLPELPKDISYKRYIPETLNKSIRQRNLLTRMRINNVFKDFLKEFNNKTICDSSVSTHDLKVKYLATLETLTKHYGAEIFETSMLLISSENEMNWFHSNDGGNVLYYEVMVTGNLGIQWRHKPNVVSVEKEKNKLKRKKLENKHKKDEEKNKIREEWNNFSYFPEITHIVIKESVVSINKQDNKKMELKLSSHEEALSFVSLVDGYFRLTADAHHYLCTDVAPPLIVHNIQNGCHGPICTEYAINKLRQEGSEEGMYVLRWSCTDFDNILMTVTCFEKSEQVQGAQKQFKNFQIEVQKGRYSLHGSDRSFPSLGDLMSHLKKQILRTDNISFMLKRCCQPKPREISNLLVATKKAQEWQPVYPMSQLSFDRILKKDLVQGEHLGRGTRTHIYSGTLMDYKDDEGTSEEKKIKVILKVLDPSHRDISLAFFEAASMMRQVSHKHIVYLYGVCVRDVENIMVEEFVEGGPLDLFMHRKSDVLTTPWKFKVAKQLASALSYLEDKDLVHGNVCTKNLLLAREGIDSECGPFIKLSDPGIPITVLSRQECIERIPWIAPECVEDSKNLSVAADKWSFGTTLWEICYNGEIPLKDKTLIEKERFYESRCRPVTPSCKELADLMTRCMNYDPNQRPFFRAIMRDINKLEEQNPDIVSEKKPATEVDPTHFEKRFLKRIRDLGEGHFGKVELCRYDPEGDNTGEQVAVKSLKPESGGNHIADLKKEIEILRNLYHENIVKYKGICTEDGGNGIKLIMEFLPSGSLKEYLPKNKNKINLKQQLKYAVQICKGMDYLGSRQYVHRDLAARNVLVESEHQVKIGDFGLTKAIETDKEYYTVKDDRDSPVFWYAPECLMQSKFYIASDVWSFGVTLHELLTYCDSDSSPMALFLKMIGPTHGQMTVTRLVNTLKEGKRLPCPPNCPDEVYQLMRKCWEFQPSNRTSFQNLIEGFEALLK
JAK3 kinase, sequence (P52333 whole entry): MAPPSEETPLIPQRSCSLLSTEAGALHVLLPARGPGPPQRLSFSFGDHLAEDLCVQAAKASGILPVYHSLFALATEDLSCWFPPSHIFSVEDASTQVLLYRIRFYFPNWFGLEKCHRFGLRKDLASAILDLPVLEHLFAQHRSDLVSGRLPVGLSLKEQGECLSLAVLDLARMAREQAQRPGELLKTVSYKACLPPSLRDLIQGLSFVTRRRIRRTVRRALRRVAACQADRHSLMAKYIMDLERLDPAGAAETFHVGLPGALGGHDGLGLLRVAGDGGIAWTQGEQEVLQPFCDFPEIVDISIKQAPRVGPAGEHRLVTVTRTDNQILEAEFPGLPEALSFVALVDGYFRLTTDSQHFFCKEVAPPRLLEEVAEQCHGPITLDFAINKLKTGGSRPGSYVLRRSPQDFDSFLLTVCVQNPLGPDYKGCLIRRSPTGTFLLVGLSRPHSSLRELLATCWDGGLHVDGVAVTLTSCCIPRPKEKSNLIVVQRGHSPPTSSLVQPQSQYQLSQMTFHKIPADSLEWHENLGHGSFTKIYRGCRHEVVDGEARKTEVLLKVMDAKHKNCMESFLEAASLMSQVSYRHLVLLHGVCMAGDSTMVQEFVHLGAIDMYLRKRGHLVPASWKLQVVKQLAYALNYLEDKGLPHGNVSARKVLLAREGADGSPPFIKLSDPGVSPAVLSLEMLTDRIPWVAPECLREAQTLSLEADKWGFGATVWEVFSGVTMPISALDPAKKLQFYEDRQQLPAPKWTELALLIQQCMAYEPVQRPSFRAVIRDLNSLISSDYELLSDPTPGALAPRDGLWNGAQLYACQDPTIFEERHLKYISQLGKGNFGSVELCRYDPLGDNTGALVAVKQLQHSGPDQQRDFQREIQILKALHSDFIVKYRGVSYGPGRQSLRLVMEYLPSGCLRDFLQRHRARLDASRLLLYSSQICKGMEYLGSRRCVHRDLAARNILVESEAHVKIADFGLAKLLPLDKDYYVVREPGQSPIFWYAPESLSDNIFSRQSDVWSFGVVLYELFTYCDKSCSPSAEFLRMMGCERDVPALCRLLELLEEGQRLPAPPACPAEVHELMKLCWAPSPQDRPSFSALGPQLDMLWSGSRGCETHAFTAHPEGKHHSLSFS

Row | Compound | Vd/F [1] | AUC [1] | CL/F [1] | half-life [1] | MRT [1] | Cmax [1] | IC50 [2] | IC50 [3] | IC50 [4]
1 | CC(=O)N1CC[C@H]2CC(N(C)c3ncnc4[nH]ccc34)C[C@H]2C1 (stereo partly drawn) [Example 35, 1-((4aS,7aR)-6-(Methyl(7H-pyrrolo[2,3-d]pyrimidin-4-yl)amino)hexahydro-1H-cyclopenta[c]pyridin-2(3H,4H,4aH,5H,6H,7H,7aH)-yl)ethanone] | 10.4 ± 2.04 L/kg | 3080 ± 1340 ng·h/mL | 63.3 ± 28 mL/min/kg | 2.11 ± 0.67 h | 3.02 ± 1.33 h | 1220 ± 244 ng/mL | 16 nM | 3 nM | –
2 | CN(c1ncnc2[nH]cc(F)c12)[C@H]1C[C@@H]2CN(C(=O)CO)C[C@@H]2C1 [Example 128, 1-((3aR,5S,6aS)-5-((5-fluoro-7H-pyrrolo[2,3-d]pyrimidin-4-yl)(methyl)amino)hexahydrocyclopenta[c]pyrrol-2(1H)-yl)-2-hydroxyethanone] | 11.4 ± 4.15 L/kg | 2320 ± 1030 ng·h/mL | 84.3 ± 37.8 mL/min/kg | 1.62 ± 0.28 h | – | 1420 ± 150 ng/mL | – | 13 nM | 4 nM
3 | CCc1nsc(NC(=O)N2C[C@H]3C[C@H](N(C)c4ncnc5[nH]ccc45)C[C@H]3C2)n1 [Example 48, (3aR,5S,6aS)—N-(3-Ethyl-1,2,4-thiadiazol-5-yl)-5-(methyl(7H-pyrrolo[2,3-d]pyrimidin-4-yl)amino)hexahydrocyclopenta[c]pyrrole-2(1H)-carboxamide] | 7.2 ± 8.11 L/kg | 9620 ± 7910 ng·h/mL | 31.9 ± 26.9 mL/min/kg | 2.43 ± 0.75 h | 3.4 ± 0.91 h | 2070 ± 1470 ng/mL | 31 nM | 1 nM | –
4 | CN(c1ncnc2[nH]ccc12)[C@H]1C[C@@H]2CN(C(=O)C(O)C(F)(F)F)C[C@@H]2C1 (stereo partly drawn) [Example 97, 3,3,3-trifluoro-2-hydroxy-1-((3aR,5S,6aS)-5-(methyl(7H-pyrrolo[2,3-d]pyrimidin-4-yl)amino)hexahydrocyclopenta[c]pyrrol-2(1H)-yl)propan-1-one] | – | – | – | – | – | – | – | – | 110 nM
5 | CN(c1ncnc2[nH]ccc12)[C@H]1C[C@@H]2CN(C(=O)Nc3nc(C4CC4)ns3)C[C@@H]2C1 [Example 49, (3aR,5S,6aS)—N-(3-Cyclopropyl-1,2,4-thiadiazol-5-yl)-5-(methyl(7H-pyrrolo[2,3-d]pyrimidin-4-yl)amino)hexahydrocyclopenta[c]pyrrole-2(1H)-carboxamide] | 18.1 ± 20.7 L/kg | 6000 ± 4740 ng·h/mL | 46.1 ± 35.6 mL/min/kg | – | – | 1060 ± 677 ng/mL | 14 nM | 0.2 nM | –
6 | CN(C[C@H]1[C@@H]2CN(C(=O)OC(C)(C)C)C[C@@H]21)c1ncnc2[nH]ccc12 [Example 133, (1R,5S,6S)-tert-butyl 6-((methyl(7H-pyrrolo[2,3-d]pyrimidin-4-yl)amino)methyl)-3-azabicyclo[3.1.0]hexane-3-carboxylate] | – | – | – | – | – | – | – | – | 90 nM
7 | CC(C)C(=O)N1CC[C@H]2C[C@@H](N(C)c3ncnc4[nH]ccc34)C[C@H]2C1 [Example 151, 2-methyl-1-((4aS,6R,7aR)-6-(methyl(7H-pyrrolo[2,3-d]pyrimidin-4-yl)amino)hexahydro-1H-cyclopenta[c]pyridin-2(3H)-yl)propan-1-one] | – | – | – | – | – | – | 127 nM | 106 nM | 203 nM
8 | CN(c1ncnc2[nH]ccc12)[C@H]1C[C@@H]2CN(CC(F)(F)F)C[C@@H]2C1 [Example 56, N-methyl-N-((3aR,5S,6aS)-2-(2,2,2-trifluoroethyl)octahydrocyclopenta[c]pyrrol-5-yl)-7H-pyrrolo[2,3-d]pyrimidin-4-amine] | – | – | – | – | – | – | 32 nM | 11 nM | 75 nM
9 | CN(c1ncnc2[nH]c(F)cc12)[C@H]1C[C@@H]2CN(C(=O)CO)C[C@@H]2C1 [Example 129, 1-((3aR,5S,6aS)-5-((6-fluoro-7H-pyrrolo[2,3-d]pyrimidin-4-yl)(methyl)amino)hexahydrocyclopenta[c]pyrrol-2(1H)-yl)-2-hydroxyethanone] | – | – | – | – | – | – | – | 36 nM | 17 nM
10 | CN(c1ncnc2[nH]ccc12)[C@H]1C[C@@H]2CN(C(=O)CCC#N)C[C@@H]2C1 [Example 22, 4-((3aR,5S,6aS)-5-(Methyl(7H-pyrrolo[2,3-d]pyrimidin-4-yl)amino)hexahydrocyclopenta[c]pyrrol-2(1H)-yl)-4-oxobutanenitrile] | 9.39 ± 8.06 L/kg | 6990 ± 4560 ng·h/mL | 34.6 ± 22.7 mL/min/kg | 2.87 ± 0.7 h | 2.6 ± 0.1 h | 2960 ± 2110 ng/mL | 54 nM | 16 nM | –
11 | CN(c1ncnc2[nH]ccc12)C1C[C@@H]2CCN(C(=O)CC#N)C[C@@H]2C1 (stereo partly drawn) [Example 39, 3-((4aS,7aR)-6-(Methyl(7H-pyrrolo[2,3-d]pyrimidin-4-yl)amino)hexahydro-1H-cyclopenta[c]pyridin-2(3H,4H,4aH,5H,6H,7H,7aH)-yl)-3-oxopropanenitrile] | – | – | – | – | – | – | 113 nM | 34 nM | –
12 | CN(c1ncnc2[nH]ccc12)[C@H]1C[C@@H]2CN(C(=O)Nc3nc(CO)ns3)C[C@@H]2C1 [Example 50, (3aR,5S,6aS)—N-(3-(Hydroxymethyl)-1,2,4-thiadiazol-5-yl)-5-(methyl(7H-pyrrolo[2,3-d]pyrimidin-4-yl)amino)hexahydrocyclopenta[c]pyrrole-2(1H)-carboxamide] | – | – | – | – | – | – | 7 nM | 0.5 nM | 201 nM
13 | CN(c1ncnc2[nH]ccc12)[C@@H]1C[C@@H]2CN(CC#N)C[C@@H]2C1 [Example 69, 2-((3aR,5R,6aS)-5-(methyl(7H-pyrrolo[2,3-d]pyrimidin-4-yl)amino)hexahydrocyclopenta[c]pyrrol-2(1H)-yl)acetonitrile] | – | – | – | – | – | – | 4 nM | 5 nM | 20 nM
14 | COc1nsc(NC(=O)N2C[C@H]3C[C@H](N(C)c4ncnc5[nH]ccc45)C[C@H]3C2)n1 [Example 34, (3aR,5S,6aS)—N-(3-Methoxy-1,2,4-thiadiazol-5-yl)-5-(methyl(7H-pyrrolo[2,3-d]pyrimidin-4-yl)amino)hexahydrocyclopenta[c]pyrrole-2(1H)-carboxamide] | 2.76 ± 1.53 L/kg | 14900 ± 10400 ng·h/mL | 18.3 ± 14.2 mL/min/kg | 2.1 ± 0.73 h | 3.81 ± 0.82 h | 2670 ± 1450 ng/mL | 5 nM | 2 nM | –
15 | CN(c1ncnc2[nH]ccc12)[C@H]1C[C@@H]2CN(C(=O)CO)C[C@@H]2C1 [Example 6, 2-Hydroxy-1-((3aR,5S,6aS)-5-(methyl(7H-pyrrolo[2,3-d]pyrimidin-4-yl)amino)hexahydrocyclopenta[c]pyrrol-2(1H)-yl)ethanone] | 34.5 ± 21 L/kg | 2210 ± 1470 ng·h/mL | 110 ± 71 mL/min/kg | 4.01 ± 1.52 h | 2.19 ± 0.6 h | 1230 ± 549 ng/mL | 45 nM | 5 nM | 11 nM
16 | CN(c1ncnc2[nH]ccc12)[C@H]1C[C@@H]2CN(C(=O)OCC(F)(F)F)C[C@@H]2C1 [Example 111, (3aR,5S,6aS)-2,2,2-trifluoroethyl 5-(methyl(7H-pyrrolo[2,3-d]pyrimidin-4-yl)amino)hexahydrocyclopenta[c]pyrrole-2(1H)-carboxylate] | – | – | – | – | – | – | 146 nM | 96 nM | 101 nM
17 | CN(c1ncnc2[nH]ccc12)C1C[C@@H]2CCN(C(=O)CO)C[C@@H]2C1 (stereo partly drawn) [Example 37, 2-Hydroxy-1-((4aS,7aR)-6-(methyl(7H-pyrrolo[2,3-d]pyrimidin-4-yl)amino)hexahydro-1H-cyclopenta[c]pyridin-2(3H,4H,4aH,5H,6H,7H,7aH)-yl)ethanone] | – | – | – | – | – | – | 72 nM | 50 nM | –
18 | Cc1noc(N2C[C@H]3C[C@H](N(C)c4ncnc5[nH]ccc45)C[C@H]3C2)n1 [Example 61, N-methyl-N-((3aR,5S,6aS)-2-(3-methyl-1,2,4-oxadiazol-5-yl)octahydrocyclopenta[c]pyrrol-5-yl)-7H-pyrrolo[2,3-d]pyrimidin-4-amine] | – | – | – | – | – | – | 25 nM | 128 nM | –
19 | COc1nsc(NC(=O)N2C[C@H]3C[C@@H](N(C)c4ncnc5[nH]ccc45)C[C@H]3C2)n1 [Example 74, (3aR,5R,6aS)-N-(3-methoxy-1,2,4-thiadiazol-5-yl)-5-(methyl(7H-pyrrolo[2,3-d]pyrimidin-4-yl)amino)hexahydrocyclopenta[c]pyrrole-2(1H)-carboxamide] | – | – | – | – | – | – | 56 nM | 4 nM | –
